Experimental data taken from patent US8280710B2, “Method for determining thermal stability of collagen or collagen-like peptide” (University of Medicine and Dentistry of New Jersey, priority 2005, dated 2012).
Non-standard residues stand in square brackets, D forms with d. Residues, ends and D or L forms follow the SMILES beside them. Hyp = O=C(O)[C@@H]1C[C@@H](O)CN1

Experiments:
[1] = for Tm^obs: peptide of Table 3, defined standard conditions
Summary of the method: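 Host-guest peptides in Gly-Xaa1-Hyp or Gly-Pro-Xaa2 contexts were melted at 1 mg/ml in PBS, pH 7.0. The heating rate averaged 0.1° C./minute, and residue propensity was derived from the Tm values.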

[2] = Method for predicting global Tm of collagen peptides from amino acid sequence; conditions: observed minus predicted, peptides of Table 3
Procedure: The global thermal stability of homotrimeric triple helical peptides with length of at least 6 tripeptide units and, in most cases, containing 10 tripeptide units was determined as follows.
For the total number of triplets n in a given peptide, the base Tm^0(n) for (Pro-Hyp-Gly) or (Pro-Pro-Gly)n was calculated from the length dependence (Equation 1), including any effect of blocking groups;
The melting temperature value was decreased for every triplet in the sequence that was not Gly-Pro-Hyp, subtracting a value of ΔTm^GXY (Table 1). The N-terminal and C-terminal tripeptide units were excluded from the calculation due to the staggering of the chains and the disorder for the peptide ends (Bella et al. (1994) supra; Li, et al. (1993) Biochemistry 32:7377-7387; Kramer, et al. (2001) J. Mol. Biol. 301:1191-1205).
The resulting value for the peptide melting temperature was adjusted using the ΔTm^int values for interactions between neighboring tripeptides (Table 2).
The method was formulated as follows.
To extrapolate the dependence of the Tm of the host peptides on peptide length, the experimental values for (Pro-Hyp-Gly)n and (Pro-Pro-Gly)n versus n, where n is the number of tripeptide units, were fit to the exponential decay function
[formula] where Tm^0(n) is defined as the base thermal stability of the repeating polytripeptide standard, Tm^max is the maximum melting temperature, and the constant n0 represents the length of the repeating peptide with Tm=0.

[3] = Predicted Tm of guest triplets/hexapeptides by additivity of Xaa1 and Xaa2 residues (Equation 1); conditions: host-guest collagen-like peptides
Procedure: A complete table of the stability for all Gly-Xaa1-Xaa2 triplets was constructed using the experimental values for all frequent sequences and the predicted values for all others (Table 1; experimental values are in bold). Predicted values were calculated on the basis of additivity of residues in the Xaa1 and Xaa2 position (Persikov, et al. (2002) supra; Equation 1). Tm^GX^1^X^2=Tm^GX^1^O+Tm^GPX^2−Tm^GPO (1)
The predicted values gave good agreement (within ±3° C.) for the Gly-Ala-Ala and for 28 other guest triplets of the 41 Gly-Xaa1-Xaa2 triplets studied in host-guest collagen-like peptides. […] Observed Tm values of Gly-Xaa1-Arg sequences (Gly-Glu-Arg, Gly-Ala-Arg, Gly-Lys-Arg, Gly-Gln-Arg, and Gly-Asp-Arg) were 2.5° C. smaller on average than predicted, indicating the need for a correction factor in a Gly-Xaa1-Arg context versus a Gly-Pro-Arg context.
Interactions between adjacent Gly-Xaa1-Xaa2 tripeptides were included in the calculations. One study reported stabilities of a selection of host-guest peptides including residues in two adjacent tripeptide units, Gly-Xaa1-Xaa2-Gly-Xaa1′-Xaa2′, covering possible direct interchain or intrachain interactions between residues that are separated by ≦3 residues in sequence (Persikov, et al. (2005) supra) (FIG. 1).

| Tm^obs [1] | ΔTm [2] | experimentally observed Tm of Gly-Xaa1-Xaa2 tripeptide unit in a triple helix ([1]; host-guest peptide, (Gly-Pro-Hyp)8 host, c=1 mg/ml in phosphate-buffered saline, pH 7.0, heating rate 0.1° C./minute) | deviation of observed Tm from predicted Tm of guest triplet [3] | Molecule |
| --- | --- | --- | --- | --- |
| 26.0 °C | −2.2 °C | – | – | CC(=O)NCC(=O)N1CCC[C@H]1C(=O)N[C@@H](C)C(=O)NCC(=O)N1CCC[C@H]1C(=O)N[C@@H](C)C(=O)NCC(=O)N1CCC[C@H]1C(=O)N[C@H](C(=O)NCC(=O)N1CCC[C@H]1C(=O)N[C@@H](C)C(=O)NCC(=O)N[C@@H](C)C(=O)N[C@@H](CCCNC(=N)N)C(=O)NCC(=O)N1CCC[C@H]1C(=O)N[C@@H](C)C(=O)NCC(=O)N1CCC[C@H]1C(=O)N1C[C@H](O)C[C@H]1C(=O)NCC(=O)N1CCC[C@H]1C(=O)N1C[C@H](O)C[C@H]1C(=O)NCC(=O)N1CCC[C@H]1C(=O)N1C[C@H](O)C[C@H]1C(=O)NCC(=O)N1CCC[C@H]1C(=O)N1C[C@H](O)C[C@H]1C(=O)NCC(=O)N[C@H](C(N)=O)C(C)C)C(C)C [T1-892, Ac-GPA-GPA-GPV-GPA-GAR-GPA-(GPO)4-GV-NH2] (Ac-GPAGPAGPVGPAGARGPAGP[Hyp]GP[Hyp]GP[Hyp]GP[Hyp]GV-NH2) |
| 25.0 °C | 3.9 °C | – | – | CC(=O)NCC(=O)N[C@@H](CO)C(=O)N1C[C@H](O)C[C@H]1C(=O)NCC(=O)N[C@@H](C)C(=O)N[C@@H](CCC(N)=O)C(=O)NCC(=O)N[C@@H](CC(C)C)C(=O)N[C@@H](CCC(N)=O)C(=O)NCC(=O)N1CCC[C@H]1C(=O)N[C@@H](CCCNC(=N)N)C(=O)NCC(=O)N[C@@H](CC(C)C)C(=O)N1C[C@H](O)C[C@H]1C(=O)NCC(=O)N[C@H](C(=O)N1C[C@H](O)C[C@H]1C(=O)NCC(=O)N1CCC[C@H]1C(=O)N1C[C@H](O)C[C@H]1C(=O)NCC(=O)N1CCC[C@H]1C(=O)N1C[C@H](O)C[C@H]1C(=O)NCC(=O)N1CCC[C@H]1C(=O)N1C[C@H](O)C[C@H]1C(=O)NCC(=O)N1CCC[C@H]1C(=O)N1C[C@H](O)C[C@H]1C(=O)NCC(=O)N[C@H](C(=O)O)C(C)C)[C@@H](C)O [T2-508, Ac-GSO-GAQ-GLQ-GPR-GLO-GTO-(GPO)4-GV-OH] (Ac-GS[Hyp]GAQGLQGPRGL[Hyp]GT[Hyp]GP[Hyp]GP[Hyp]GP[Hyp]GP[Hyp]GV-OH) |
| 18.0 °C | 0.9 °C | – | – | CC[C@H](C)[C@H](NC(=O)CNC(=O)[C@@H]1C[C@@H](O)CN1C(=O)[C@@H]1CCCN1C(=O)CNC(=O)[C@@H]1C[C@@H](O)CN1C(=O)[C@@H]1CCCN1C(=O)CNC(=O)[C@@H]1C[C@@H](O)CN1C(=O)[C@@H]1CCCN1)C(=O)N[C@H](C(=O)NCC(=O)N[C@@H](C)C(=O)N[C@@H](CCCNC(=N)N)C(=O)NCC(=O)N[C@@H](CC(C)C)C(=O)N[C@@H](C)C(=O)NCC(=O)N1CCC[C@H]1C(=O)N1C[C@H](O)C[C@H]1C(=O)NCC(=O)N1CCC[C@H]1C(=O)N1C[C@H](O)C[C@H]1C(=O)NCC(=O)N1CCC[C@H]1C(=O)N1C[C@H](O)C[C@H]1C(=O)NCC(=O)N1CCC[C@H]1C(=O)N1C[C@H](O)C[C@H]1C(=O)NCC(=O)O)[C@@H](C)O [T3-785, PO-(GPO)2-GIT-GAR-GLA-(GPO)4-G] (H-P[Hyp]GP[Hyp]GP[Hyp]GITGARGLAGP[Hyp]GP[Hyp]GP[Hyp]GP[Hyp]G-OH) |
| 25.4 °C | 2.1 °C | – | – | CC[C@H](C)[C@H](NC(=O)CNC(=O)[C@@H]1C[C@@H](O)CN1C(=O)[C@H](CCCCN)NC(=O)CNC(=O)[C@@H]1C[C@@H](O)CN1C(=O)[C@H](CCC(=O)O)NC(=O)CNC(=O)[C@H](C)NC(=O)[C@H](CC(C)C)NC(=O)CNC(C)=O)C(=O)N1C[C@H](O)C[C@H]1C(=O)NCC(=O)N[C@@H](CC(C)C)C(=O)N1C[C@H](O)C[C@H]1C(=O)NCC(=O)N[C@@H](CCCNC(=N)N)C(=O)N[C@@H](C)C(=O)NCC(=O)N1CCC[C@H]1C(=O)N1C[C@H](O)C[C@H]1C(=O)NCC(=O)N1CCC[C@H]1C(=O)N1C[C@H](O)C[C@H]1C(=O)NCC(=O)N1CCC[C@H]1C(=O)N1C[C@H](O)C[C@H]1C(=O)NCC(=O)N1CCC[C@H]1C(=O)N1C[C@H](O)C[C@H]1C(=O)NCC(=O)N[C@H](C(N)=O)C(C)C [T7-2031, Ac-GLA-GEO-GKO-GIO-GLO-GRA-(GPO)4-GV-NH2] (Ac-GLAGE[Hyp]GK[Hyp]GI[Hyp]GL[Hyp]GRAGP[Hyp]GP[Hyp]GP[Hyp]GP[Hyp]GV-NH2) |
| – | – | 32.9 °C | ≤ 3 °C | Gly-Ala-Ala |

| Molecule | Tm^obs [1] | ΔTm [2] | experimentally observed Tm of Gly-Xaa1-Xaa2 tripeptide unit in a triple helix ([1]; host-guest peptide, (Gly-Pro-Hyp)8 host, c=1 mg/ml in phosphate-buffered saline, pH 7.0, heating rate 0.1° C./minute) | deviation of observed Tm from predicted Tm of guest triplet [3] |
| --- | --- | --- | --- | --- |
| GPS-GPR-GLO-GPO-GAO-GPQ-GFQ-GPO-(GEO)2-GAS-GPM [α1CB2] | 12 °C | 3.4 °C | – | – |
